SMILES strings stand for the structures.

The target in the assay is SphK1 (Homo sapiens, UniProt Q9NYA1). The assay is described as follows: SphK1 kinase assay, 384-well flashplate (biochemical assay). Conditions: IC50 ranges; 5 nM modified SphK1, 800 nM omega-biotinyl-D-erythro-sphingosine, 1 μM ATP, 30° C., 120 min; read-out: SphK1 Inhibition IC50. As to the method:
Tests for the Inhibition of the SphK1 Activity
The kinase assay is carried out as a 384-well flashplate assay.
5 nM modified SphK1, 800 nM omega-biotinyl-D-erythro-sphingosine and 1 μM ATP (with 0.3 μCi of ^33P-ATP/well) are incubated in a total volume of 50 μl (25 mM HEPES, 5 mM MgCl2, 1 mM dithiothreitol, 0.01% of Brij35, 0.1% of BSA (fatty acid-free), pH 7.4) without or with test substance (5-10 concentrations) at 30° C. for 120 min. The reaction is terminated using 25 μl of 200 mM EDTA solution, filtered off with suction at room temperature after 30 min, and the cavities are washed 3 times with 100 μl of 0.9% NaCl solution. The non-specific proportion of the kinase reaction (blank) is determined using 0.5 mM NaCl. Radioactivity is measured in topcount. IC50 values are calculated using RS1.

SphK1, sequence (Q9NYA1 9-364 limits assumed): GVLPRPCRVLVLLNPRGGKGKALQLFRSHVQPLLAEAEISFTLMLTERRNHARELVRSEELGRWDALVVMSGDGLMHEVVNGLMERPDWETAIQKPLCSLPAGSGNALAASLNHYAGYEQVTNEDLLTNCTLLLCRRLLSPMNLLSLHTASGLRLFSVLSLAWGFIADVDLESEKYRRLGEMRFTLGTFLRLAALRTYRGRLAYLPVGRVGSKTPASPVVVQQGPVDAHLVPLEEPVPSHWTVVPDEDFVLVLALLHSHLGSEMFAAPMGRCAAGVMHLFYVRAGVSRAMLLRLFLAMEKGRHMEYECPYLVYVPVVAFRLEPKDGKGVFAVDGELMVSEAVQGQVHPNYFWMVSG

One may read the IC50 as the concentration that inhibits the measured activity by half. As to `Cc1ccc(-c2ccc3c(c2)C(C)(C)CCC3(C)C)cc1N1CCNCC1`, the IC50 is more than 1000 nM.

For the compound `CC1(C)CCC(C)(C)c2cc(-c3cc(N4CCNCC4)ccn3)ccc21`, the IC50 lay in the range of 100 to 1000 nM.

As for `COCCOc1ccc(-c2ccc3c(c2)C(C)(C)CCC3(C)C)nc1N1CCNCC1`, the IC50 was more than 1000 nM.

For `CC1(C)CCC(C)(C)c2cc(-c3ncnc(N4CCC(N)CC4)n3)ccc21`, the IC50 is less than 100 nM.

As for `CC1(C)CCC(C)(C)c2cc(-c3ccnc(N4CCNCC4)c3)ccc21`, the IC50 lay in the range of 100 to 1000 nM.

For the compound `CC1(C)CCC(C)(C)c2cc(-c3nccc(N4CCN(CCCO)CC4)n3)ccc21`, the IC50 lay within 100 to 1000 nM.

Regarding `CC1(C)CCC(C)(C)c2cc(-c3cc(N4CCN(CCCCO)CC4)ccn3)ccc21`, the IC50 lay in the range of 100 to 1000 nM.

As for `CC1(C)CCC(C)(C)c2cc(-c3cccc(N4CCN(CCCCO)CC4)c3)ccc21`, the IC50 lay within 100 to 1000 nM.

`CC1(C)CCC(C)(C)c2cc(-c3ccnc(N4CCN(CCCCO)CC4)c3)ccc21`: the IC50 lay in the range of 100 to 1000 nM.

As for `CC1(C)CCC(C)(C)c2cc(-c3cccc(N4CCN(CCCCO)CC4)n3)ccc21`, the IC50 is less than 100 nM.

Consider `COCCOc1ccc(-c2ccc3c(c2)C(C)(C)CCC3(C)C)nc1N1CCN(CCCCCO)CC1`, for which the IC50 was more than 1000 nM.

With `CC1(C)CCC(C)(C)c2cc(-c3cccc(N4CCN(CCCCCO)CC4)c3)ccc21`, the IC50 is less than 100 nM.

On to `CC1(C)CCC(C)(C)c2cc(-c3ncnc(N4CCN(CCCCCO)CC4)n3)ccc21`, for which the IC50 is less than 100 nM.

In the case of `CC1(C)CCC(C)(C)c2cc(-c3cccc(N4CCN(CCCCCO)CC4)n3)ccc21`, the IC50 is less than 100 nM.

As for `CC1(C)CCC(C)(C)c2cc(-c3cccc(N4CCN(CCCCCOC(=O)CN)CC4)c3)ccc21`, the IC50 lay within 100 to 1000 nM.

As for `CC1(C)CCC(C)(C)c2cc(-c3cccc(N4CCN(C[C@@H](N)CO)CC4)n3)ccc21`, the IC50 was more than 1000 nM.

As for `C[C@H]1CN(c2cccc(-c3ccc4c(c3)C(C)(C)CCC4(C)C)c2)CCN1`, the IC50 is 100 to 1000 nM.

In the case of `CC1(C)CCC(C)(C)c2cc(-c3cccc(N4CCNCC4)c3)ccc21` [1-[3-(5,5,8,8-Tetramethyl-5,6,7,8-tetrahydronaphthalen-2-yl)phenyl]-piperazine], the IC50 was 100 to 1000 nM.

Consider `CC1(C)CC(C)(C)c2cc(-c3cccc(N4CCNCC4)n3)ccc21` [1-[6-(1,1,3,3-Tetramethylindan-5-yl)pyridin-2-yl]piperazine], for which the IC50 was 100 to 1000 nM.

On to `CC1(C)CCc2cc(-c3cccc(N4CCNCC4)n3)ccc21` [1-[6-(1,1-Dimethylindan-5-yl)pyridin-2-yl]piperazine], for which the IC50 is more than 1000 nM.

Regarding `CC1(C)CCC(C)(C)c2cc(-c3cccc(N4CCNCC4)n3)ccc21` [1-[6-(5,5,8,8-Tetramethyl-5,6,7,8-tetrahydronaphthalen-2-yl)pyridin-2-yl]piperazine], the IC50 was in the range of 100 to 1000 nM.

With `CC1(C)CCCc2cc(-c3cccc(N4CCNCC4)n3)ccc21` [1-[6-(5,5-Dimethyl-5,6,7,8-tetrahydronaphthalen-2-yl)pyridin-2-yl]-piperazine], the IC50 was more than 1000 nM.

`CC1(C)CCCc2ccc(-c3cccc(N4CCNCC4)n3)cc21` [1-[6-(8,8-Dimethyl-5,6,7,8-tetrahydronaphthalen-2-yl)pyridin-2-yl]-piperazine]: the IC50 was more than 1000 nM.

In the case of `CC1(C)CCC(C)(C)c2cc(-c3cccc(N4CCC(N5CCC(N)C5)CC4)n3)ccc21` (stereo not drawn) [1-[6′-(5,5,8,8-Tetramethyl-5,6,7,8-tetrahydronaphthalen-2-yl)-3,4,5,6-tetrahydro-2H-1,2′-bipyridinyl-4-yl]pyrrolidin-3-ylamine], the IC50 was less than 100 nM.

Take `CC1(C)CCC(C)(C)c2cc(-c3ncnc(N4CCC(N5CCC(N)C5)CC4)n3)ccc21` (stereo not drawn) [1-{1-[4-(5,5,8,8-Tetramethyl-5,6,7,8-tetrahydronaphthalen-2-yl)-1,3,5-triazin-2-yl]piperidin-4-yl}pyrrolidin-3-ylamine]: the 50% inhibitory concentration (IC50) is 100 to 1000 nM.

Turning to `CC1(C)CCC(C)(C)c2cc(-c3ncnc(N4CCC(N5CCCC(O)C5)CC4)n3)ccc21` (stereo not drawn) [1′-[4-(5,5,8,8-Tetramethyl-5,6,7,8-tetrahydronaphthalen-2-yl)-1,3,5-triazin-2-yl]-1,4′-bipiperidinyl-3-ol], the IC50 was 100 to 1000 nM.

For the compound `CC1(C)CCCc2cc(-c3ncnc(N4CCNCC4)n3)ccc21` [2-(5,5-Dimethyl-5,6,7,8-tetrahydronaphthalen-2-yl)-4-piperazin-1-yl-1,3,5-triazine], the IC50 is more than 1000 nM.

`CC1(C)CCCc2ccc(-c3ncnc(N4CCNCC4)n3)cc21` [2-(8,8-Dimethyl-5,6,7,8-tetrahydronaphthalen-2-yl)-4-piperazin-1-yl-1,3,5-triazine]: the IC50 is more than 1000 nM.

`CC1(C)CCC(C)(C)c2cc(-c3ncnc(N4CCNCC4)n3)ccc21` [2-Piperazin-1-yl-4-(5,5,8,8-tetramethyl-5,6,7,8-tetrahydronaphthalen-2-yl)-1,3,5-triazine]: the IC50 was less than 100 nM.

With `CC1(C)CCC(C)(C)c2cc(-c3ccnc(N4CCNCC4)n3)ccc21` [2-Piperazin-1-yl-4-(5,5,8,8-tetramethyl-5,6,7,8-tetrahydronaphthalen-2-yl)pyrimidine], the 50% inhibitory concentration (IC50) was 100 to 1000 nM.

As for `CC1(C)CCC(C)(C)c2cc(-c3cccc(N4CCN(CCCO)CC4)n3)ccc21` [3-{4-[6-(5,5,8,8-Tetramethyl-5,6,7,8-tetrahydronaphthalen-2-yl)-pyridin-2-yl]piperazin-1-yl}propan-1-ol], the IC50 fell in the range of 100 to 1000 nM.

Take `CC1(C)CCCc2cc(-c3cccc(N4CCN(CCCO)CC4)n3)ccc21` [3-{4-[6-(5,5-Dimethyl-5,6,7,8-tetrahydronaphthalen-2-yl)pyridin-2-yl]-piperazin-1-yl}propan-1-ol]: the IC50 was more than 1000 nM.

Consider `CC1(C)CCC(C)(C)c2cc(-c3nccc(N4CCNCC4)n3)ccc21` [4-Piperazin-1-yl-2-(5,5,8,8-tetramethyl-5,6,7,8-tetrahydronaphthalen-2-yl)pyrimidine], for which the IC50 fell in the range of 100 to 1000 nM.

Take `CC1(C)CCC(C)(C)c2cc(-c3cccc(N4CCC(NCCCCO)CC4)n3)ccc21` [4-[6′-(5,5,8,8-Tetramethyl-5,6,7,8-tetrahydronaphthalen-2-yl)-3,4,5,6-tetrahydro-2H-1,2′-bipyridinyl-4-ylamino]butan-1-ol]: the IC50 is less than 100 nM.

Take `CC1(C)CCC(C)(C)c2cc(-c3ncnc(N4CCC(NCCCCO)CC4)n3)ccc21` [4-{1-[4-(5,5,8,8-Tetramethyl-5,6,7,8-tetrahydronaphthalen-2-yl)-1,3,5-triazin-2-yl]piperidin-4-ylamino}butan-1-ol]: the IC50 is less than 100 nM.

In the case of `CC1(C)CCC(C)(C)c2cc(-c3ncnc(N4CCN(CCCCO)CC4)n3)ccc21` [4-{4-[4-(5,5,8,8-Tetramethyl-5,6,7,8-tetrahydronaphthalen-2-yl)-1,3,5-triazin-2-yl]piperazin-1-yl}butan-1-ol], the IC50 was less than 100 nM.

`CC1(C)CC(C)(C)c2cc(-c3cccc(N4CCN(CCCCO)CC4)n3)ccc21` [4-{4-[6-(1,1,3,3-Tetramethylindan-5-yl)pyridin-2-yl]piperazin-1-yl}-butan-1-ol]: the IC50 was in the range of 100 to 1000 nM.

Regarding `CC1(C)CCc2cc(-c3cccc(N4CCN(CCCCO)CC4)n3)ccc21` [4-{4-[6-(1,1-Dimethylindan-5-yl)pyridin-2-yl]piperazin-1-yl}butan-1-ol], the IC50 is more than 1000 nM.

Turning to `CC1(C)CCCc2cc(-c3cccc(N4CCN(CCCCO)CC4)n3)ccc21` [4-{4-[6-(5,5-Dimethyl-5,6,7,8-tetrahydronaphthalen-2-yl)pyridin-2-yl]-piperazin-1-yl}butan-1-ol], the IC50 was more than 1000 nM.

Source of the values: patent US9062015B2, “Inhibitors of sphingosine kinase” (Merck Patent GmbH, priority 2009, dated 2015).
